Patent US20260274829A1, “NEW E3 UBIQUITIN LIGASE LIGAND, PROTEIN DEGRADATION AGENT AND USE THEREOF” (GLUETACS THERAPEUTICS (SHANGHAI) CO., LTD., priority 2023, published 2026)

Assays:
Type in all cases: cell-based
IKZF1 = biological target: T1, IKZF1 (Homo sapiens, UniProt Q13422+Q96SW2); test: Western blot degradation of IKZF1 in hPBMC
T1 construct: endogenous in cells; host or cells: hPBMC
Procedure: (§1) Conventional Western blot assay was performed to evaluate the effects of the compounds of the present disclosure on the expression of target proteins in cells.
(§2) • (1) Cell Seeding and Protein Harvesting: The selected cells were processed according to the cell seeding procedure and protein harvesting procedure in Table III-2.
(§3) • (2) To the collected supernatant, 5×SDS sample loading buffer was added, followed by denaturation at 95° C. for 5 minutes. The denatured samples were then separated by SDS-PAGE electrophoresis on a polyacrylamide gel. Proteins were transferred to a nitrocellulose membrane ([…] NC membrane), blocked with blocking buffer at room temperature for 1 hour, and subjected to antibody incubation and development procedures according to the antibody manufacturer's instructions (Cell Signaling Technology).
(§4) Half-Maximal Degradation Concentration value (the drug concentration required for degrading proteins by 50%, abbreviated as DC50) reads method: comparing the grayscale values of Western blot bands from drug-treated samples with those from blank DMSO-treated controls, and identifying the drug concentration range at which the grayscale value is half that of the DMSO-treated control bands.
(§5) DC50 values can be calculated using ImageJ software to measure grayscale values of Western blot bands from drug-treated samples. The concentration-response curve is fitted to estimate the drug concentration corresponding to half the grayscale value.
(§6) Target protein remaining (0%) refers to the percentage of target protein remaining in hPBMC cells after treatment with protein degrader compounds.
(§7) Calculation method for target protein remaining (0%): Use ImageJ software to measure grayscale values of Western blot bands from drug (protein degrader)-treated samples. The grayscale value of drug-treated bands is divided by that of internal control protein bands, and the resulting quotient is normalized to obtain the relative percentage of remaining target protein after protein degrader treatment.

GSPT1 = biological target: T2, GSPT1 (Homo sapiens, UniProt P15170+Q96SW2); test: Western blot degradation of GSPT1 in hPBMC
T2 construct: endogenous in cells; host or cells: hPBMC
T2 sequence (P15170 whole entry): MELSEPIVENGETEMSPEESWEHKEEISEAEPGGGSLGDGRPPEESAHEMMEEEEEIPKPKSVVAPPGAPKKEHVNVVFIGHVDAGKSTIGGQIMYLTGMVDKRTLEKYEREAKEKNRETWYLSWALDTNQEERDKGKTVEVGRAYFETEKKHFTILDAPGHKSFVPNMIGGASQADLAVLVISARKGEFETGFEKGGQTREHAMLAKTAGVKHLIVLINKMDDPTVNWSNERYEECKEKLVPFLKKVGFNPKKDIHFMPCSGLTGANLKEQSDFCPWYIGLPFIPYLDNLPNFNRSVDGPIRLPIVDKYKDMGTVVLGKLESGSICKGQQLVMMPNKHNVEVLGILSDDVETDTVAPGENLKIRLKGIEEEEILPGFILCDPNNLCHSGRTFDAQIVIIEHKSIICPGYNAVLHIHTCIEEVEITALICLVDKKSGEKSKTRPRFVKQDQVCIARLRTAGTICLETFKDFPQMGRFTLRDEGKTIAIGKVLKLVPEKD
T2 sequence (Q96SW2 whole entry): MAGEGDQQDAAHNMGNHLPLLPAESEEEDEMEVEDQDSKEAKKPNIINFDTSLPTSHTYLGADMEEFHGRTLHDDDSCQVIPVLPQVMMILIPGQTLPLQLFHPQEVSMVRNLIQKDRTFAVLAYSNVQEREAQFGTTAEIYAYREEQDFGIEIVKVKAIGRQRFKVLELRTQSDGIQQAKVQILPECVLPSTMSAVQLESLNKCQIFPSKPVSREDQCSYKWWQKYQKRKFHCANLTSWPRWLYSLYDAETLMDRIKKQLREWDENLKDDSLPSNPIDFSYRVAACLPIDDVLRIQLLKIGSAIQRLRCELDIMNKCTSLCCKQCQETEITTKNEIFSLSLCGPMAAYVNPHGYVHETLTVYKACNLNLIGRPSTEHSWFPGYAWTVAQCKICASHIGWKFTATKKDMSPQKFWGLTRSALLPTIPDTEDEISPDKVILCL
T2 sequence (Q16531 whole entry partner): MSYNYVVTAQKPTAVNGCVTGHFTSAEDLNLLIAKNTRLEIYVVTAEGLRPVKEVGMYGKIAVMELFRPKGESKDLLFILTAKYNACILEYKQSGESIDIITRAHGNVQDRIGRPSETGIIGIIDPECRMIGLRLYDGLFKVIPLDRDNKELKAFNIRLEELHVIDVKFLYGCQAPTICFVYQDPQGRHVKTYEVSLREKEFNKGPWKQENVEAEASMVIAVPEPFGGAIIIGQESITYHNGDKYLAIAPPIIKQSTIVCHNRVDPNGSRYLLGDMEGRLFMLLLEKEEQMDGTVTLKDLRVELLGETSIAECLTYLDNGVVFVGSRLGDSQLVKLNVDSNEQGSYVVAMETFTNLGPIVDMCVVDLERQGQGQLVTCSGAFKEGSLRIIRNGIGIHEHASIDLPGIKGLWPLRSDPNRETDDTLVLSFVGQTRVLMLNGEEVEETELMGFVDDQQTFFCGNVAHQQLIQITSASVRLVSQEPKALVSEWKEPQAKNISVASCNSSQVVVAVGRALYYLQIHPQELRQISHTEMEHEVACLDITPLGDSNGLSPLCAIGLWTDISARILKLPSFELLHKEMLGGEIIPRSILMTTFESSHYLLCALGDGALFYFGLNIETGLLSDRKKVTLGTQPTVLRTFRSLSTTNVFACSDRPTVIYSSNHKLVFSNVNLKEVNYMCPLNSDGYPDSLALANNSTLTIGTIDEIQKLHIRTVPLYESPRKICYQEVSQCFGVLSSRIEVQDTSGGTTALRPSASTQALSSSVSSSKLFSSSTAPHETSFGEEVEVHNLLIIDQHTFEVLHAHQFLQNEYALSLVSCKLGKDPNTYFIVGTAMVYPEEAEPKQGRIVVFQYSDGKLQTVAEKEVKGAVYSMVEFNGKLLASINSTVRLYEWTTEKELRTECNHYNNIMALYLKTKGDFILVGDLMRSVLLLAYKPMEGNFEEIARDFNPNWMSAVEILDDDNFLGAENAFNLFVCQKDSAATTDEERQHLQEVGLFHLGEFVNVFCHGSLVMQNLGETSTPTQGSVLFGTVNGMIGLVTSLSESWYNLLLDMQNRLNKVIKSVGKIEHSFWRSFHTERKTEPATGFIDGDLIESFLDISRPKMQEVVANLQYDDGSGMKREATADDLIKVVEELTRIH
Procedure: as §1, §2, §3, §4, §5, §6, §7

IKZF2 = biological target: T3, IKZF2 (Homo sapiens, UniProt Q96SW2+Q9UKS7); test: Western blot degradation of IKZF2 in hPBMC
T3 construct: endogenous in cells; host or cells: hPBMC
T3 sequence (Q9UKS7 whole entry): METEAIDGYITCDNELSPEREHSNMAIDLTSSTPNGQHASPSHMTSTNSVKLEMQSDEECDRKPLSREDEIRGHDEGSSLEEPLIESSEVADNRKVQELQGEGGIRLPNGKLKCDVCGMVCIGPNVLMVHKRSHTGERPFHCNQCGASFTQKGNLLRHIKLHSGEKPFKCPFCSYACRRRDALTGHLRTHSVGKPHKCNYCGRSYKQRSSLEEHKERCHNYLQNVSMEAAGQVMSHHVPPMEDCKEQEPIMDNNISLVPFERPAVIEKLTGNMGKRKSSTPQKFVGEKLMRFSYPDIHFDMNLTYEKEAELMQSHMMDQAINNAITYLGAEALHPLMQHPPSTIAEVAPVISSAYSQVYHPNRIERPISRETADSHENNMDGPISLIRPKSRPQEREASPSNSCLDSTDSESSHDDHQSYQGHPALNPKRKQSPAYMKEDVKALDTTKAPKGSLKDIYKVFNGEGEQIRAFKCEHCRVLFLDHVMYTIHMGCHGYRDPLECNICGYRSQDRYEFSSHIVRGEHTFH
T3 sequence (Q96SW2 whole entry): as the sequence (Q96SW2 whole entry) above
T3 sequence (Q16531 whole entry partner): as the sequence (Q16531 whole entry partner) above
Procedure: as §1, §2, §3, §4, §5, §6, §7

IKZF3 = biological target: T4, IKZF3 (Homo sapiens, UniProt Q96SW2+Q9UKT9); test: Western blot degradation of IKZF3 in hPBMC
T4 construct: endogenous in cells; host or cells: hPBMC
T4 sequence (Q9UKT9 whole entry): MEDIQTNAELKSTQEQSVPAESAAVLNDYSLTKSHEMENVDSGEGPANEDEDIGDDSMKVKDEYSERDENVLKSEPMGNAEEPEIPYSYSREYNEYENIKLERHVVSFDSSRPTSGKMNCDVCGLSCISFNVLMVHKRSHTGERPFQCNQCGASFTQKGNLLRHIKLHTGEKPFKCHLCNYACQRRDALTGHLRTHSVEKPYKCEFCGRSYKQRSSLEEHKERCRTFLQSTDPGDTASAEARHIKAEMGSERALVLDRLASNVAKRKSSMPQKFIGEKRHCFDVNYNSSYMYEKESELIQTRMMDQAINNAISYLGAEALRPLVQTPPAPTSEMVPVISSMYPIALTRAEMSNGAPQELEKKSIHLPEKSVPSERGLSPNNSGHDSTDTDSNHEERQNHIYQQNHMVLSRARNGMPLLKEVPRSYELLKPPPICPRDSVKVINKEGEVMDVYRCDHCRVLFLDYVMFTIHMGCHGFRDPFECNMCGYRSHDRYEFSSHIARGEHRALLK
T4 sequence (Q96SW2 whole entry): as the sequence (Q96SW2 whole entry) above
T4 sequence (Q16531 whole entry partner): as the sequence (Q16531 whole entry partner) above
Procedure: as §1, §2, §3, §4, §5, §6, §7

CK1a = biological target: T5, CK1a (Homo sapiens, UniProt P48729+Q96SW2); test: Western blot degradation of CK1a in hPBMC
T5 construct: endogenous in cells; host or cells: hPBMC
Procedure: as §1, §2, §3, §4, §5, §6, §7

WEE1 = biological target: T6, WEE1 (Homo sapiens, UniProt P30291+Q96SW2); test: Western blot degradation of WEE1 in hPBMC
T6 construct: endogenous in cells; host or cells: hPBMC
T6 sequence (P30291 whole entry): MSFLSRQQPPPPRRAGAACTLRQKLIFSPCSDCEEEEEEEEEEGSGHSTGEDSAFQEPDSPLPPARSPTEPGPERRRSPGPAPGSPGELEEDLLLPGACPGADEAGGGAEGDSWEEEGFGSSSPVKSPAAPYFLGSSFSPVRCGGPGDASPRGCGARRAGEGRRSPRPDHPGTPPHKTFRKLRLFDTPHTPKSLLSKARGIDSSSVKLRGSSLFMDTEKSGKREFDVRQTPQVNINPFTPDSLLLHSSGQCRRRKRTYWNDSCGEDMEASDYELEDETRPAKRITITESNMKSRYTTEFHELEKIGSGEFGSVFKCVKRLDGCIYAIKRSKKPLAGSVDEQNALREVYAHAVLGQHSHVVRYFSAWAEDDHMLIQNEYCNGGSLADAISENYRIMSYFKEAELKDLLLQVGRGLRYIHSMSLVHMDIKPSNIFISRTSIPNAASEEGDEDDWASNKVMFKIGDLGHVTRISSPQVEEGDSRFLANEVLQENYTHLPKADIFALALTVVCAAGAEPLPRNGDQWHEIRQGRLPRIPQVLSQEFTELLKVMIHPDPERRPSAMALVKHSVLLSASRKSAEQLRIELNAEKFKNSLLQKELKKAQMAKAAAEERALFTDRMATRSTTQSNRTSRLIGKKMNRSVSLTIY
T6 sequence (Q96SW2 whole entry): as the sequence (Q96SW2 whole entry) above
T6 sequence (Q16531 whole entry partner): as the sequence (Q16531 whole entry partner) above
Procedure: as §1, §2, §3, §4, §5, §6, §7

T1 sequence (Q13422 whole entry): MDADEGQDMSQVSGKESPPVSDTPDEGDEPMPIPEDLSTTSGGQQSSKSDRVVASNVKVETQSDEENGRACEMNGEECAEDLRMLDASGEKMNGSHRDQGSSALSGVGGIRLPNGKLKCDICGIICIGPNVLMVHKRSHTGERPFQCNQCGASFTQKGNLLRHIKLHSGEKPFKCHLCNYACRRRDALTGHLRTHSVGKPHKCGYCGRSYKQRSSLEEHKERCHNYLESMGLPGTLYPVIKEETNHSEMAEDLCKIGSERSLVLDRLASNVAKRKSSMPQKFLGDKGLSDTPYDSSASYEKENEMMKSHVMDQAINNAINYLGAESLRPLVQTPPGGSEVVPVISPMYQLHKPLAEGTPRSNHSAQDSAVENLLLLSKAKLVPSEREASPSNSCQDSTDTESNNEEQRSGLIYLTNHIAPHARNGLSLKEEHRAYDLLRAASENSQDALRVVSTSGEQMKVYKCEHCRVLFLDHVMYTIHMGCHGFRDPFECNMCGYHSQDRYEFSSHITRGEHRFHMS
T1 sequence (Q96SW2 whole entry): as the sequence (Q96SW2 whole entry) above
T1 sequence (Q16531 whole entry partner): as the sequence (Q16531 whole entry partner) above

| SMILES | Degradation of substrate protein IKZF1 (substrate protein remaining %) (IKZF1) | Degradation of substrate protein GSPT1 (substrate protein remaining %) (GSPT1) | Degradation of substrate protein IKZF2 (substrate protein remaining %) (IKZF2) | Degradation of substrate protein IKZF3 (substrate protein remaining %) (IKZF3) | Degradation of substrate protein CK1a (substrate protein remaining %) (CK1a) | Degradation of substrate protein WEE1 (substrate protein remaining %) (WEE1) |
| --- | --- | --- | --- | --- | --- | --- |
| NCc1ccc(N2CCC(=O)NC2=O)cn1 [GT-07048, 1-(6-(aminomethyl)pyridin-3-yl)dihydropyrimidine-2,4(1H,3H)-dione] | A (A is defined as 0% ≤ substrate protein remaining % ≤ 80%) | A (A is defined as 0% ≤ substrate protein remaining % ≤ 80%) | A (A is defined as 0% ≤ substrate protein remaining % ≤ 80%) | A (A is defined as 0% ≤ substrate protein remaining % ≤ 80%) | A (A is defined as 0% ≤ substrate protein remaining % ≤ 80%) | B (B is defined as substrate protein remaining % > 80%) |
| O=C1CCC(c2cnc(CO)c(F)c2)C(=O)N1 (stereo not drawn) [GT-07049, 3-(5-fluoro-6-(hydroxymethyl)pyridin-3-yl)piperidine-2,6-dione] | B (B is defined as substrate protein remaining % > 80%) | A (A is defined as 0% ≤ substrate protein remaining % ≤ 80%) | A (A is defined as 0% ≤ substrate protein remaining % ≤ 80%) | A (A is defined as 0% ≤ substrate protein remaining % ≤ 80%) | A (A is defined as 0% ≤ substrate protein remaining % ≤ 80%) | B (B is defined as substrate protein remaining % > 80%) |
| O=C1CCC(c2cc(CO)ccn2)C(=O)N1 (stereo not drawn) [GT-07050, 3-(4-(hydroxymethyl)pyridin-2-yl)piperidine-2,6-dione] | A (A is defined as 0% ≤ substrate protein remaining % ≤ 80%) | A (A is defined as 0% ≤ substrate protein remaining % ≤ 80%) | B (B is defined as substrate protein remaining % > 80%) | A (A is defined as 0% ≤ substrate protein remaining % ≤ 80%) | A (A is defined as 0% ≤ substrate protein remaining % ≤ 80%) | B (B is defined as substrate protein remaining % > 80%) |
| O=C1CCC(c2cnc(F)c(CO)c2)C(=O)N1 (stereo not drawn) [GT-07074, 3-(6-fluoro-5-(hydroxymethyl)pyridin-3-yl)piperidine-2,6-dione] | B (B is defined as substrate protein remaining % > 80%) | A (A is defined as 0% ≤ substrate protein remaining % ≤ 80%) | A (A is defined as 0% ≤ substrate protein remaining % ≤ 80%) | A (A is defined as 0% ≤ substrate protein remaining % ≤ 80%) | B (B is defined as substrate protein remaining % > 80%) | B (B is defined as substrate protein remaining % > 80%) |
| O=C1CCC(c2ccc(CO)cn2)C(=O)N1 (stereo not drawn) [GT-07075, 3-(5-(hydroxymethyl)pyridin-2-yl)piperidine-2,6-dione] | B (B is defined as substrate protein remaining % > 80%) | A (A is defined as 0% ≤ substrate protein remaining % ≤ 80%) | A (A is defined as 0% ≤ substrate protein remaining % ≤ 80%) | A (A is defined as 0% ≤ substrate protein remaining % ≤ 80%) | B (B is defined as substrate protein remaining % > 80%) | B (B is defined as substrate protein remaining % > 80%) |
| NCc1cncc(N2CCC(=O)NC2=O)c1 [GT-07077, 1-(5-(aminomethyl)pyridin-3-yl)dihydropyrimidine-2,4(1H,3H)-dione] | B (B is defined as substrate protein remaining % > 80%) | A (A is defined as 0% ≤ substrate protein remaining % ≤ 80%) | B (B is defined as substrate protein remaining % > 80%) | B (B is defined as substrate protein remaining % > 80%) | B (B is defined as substrate protein remaining % > 80%) | B (B is defined as substrate protein remaining % > 80%) |
| O=C1CCN(c2cc(CCl)ccn2)C(=O)N1 [GT-07078, 1-(4-(chloromethyl)pyridin-2-yl)dihydropyrimidine-2,4(1H,3H)-dione] | B (B is defined as substrate protein remaining % > 80%) | A (A is defined as 0% ≤ substrate protein remaining % ≤ 80%) | B (B is defined as substrate protein remaining % > 80%) | B (B is defined as substrate protein remaining % > 80%) | B (B is defined as substrate protein remaining % > 80%) | B (B is defined as substrate protein remaining % > 80%) |
| O=C1CCC(Nc2ncccc2CO)C(=O)N1 (stereo not drawn) [GT-07197, 3-((3-(hydroxymethyl)pyridin-2-yl)amino)piperidine-2,6-dione] | B (B is defined as substrate protein remaining % > 80%) | A (A is defined as 0% ≤ substrate protein remaining % ≤ 80%) | B (B is defined as substrate protein remaining % > 80%) | B (B is defined as substrate protein remaining % > 80%) | A (A is defined as 0% ≤ substrate protein remaining % ≤ 80%) | B (B is defined as substrate protein remaining % > 80%) |
| NCc1ccnc(N2CCC(=O)NC2=O)c1 [GT-07198, 1-(4-(aminomethyl)pyridin-2-yl)dihydropyrimidine-2,4(1H,3H)-dione] | B (B is defined as substrate protein remaining % > 80%) | B (B is defined as substrate protein remaining % > 80%) | B (B is defined as substrate protein remaining % > 80%) | A (A is defined as 0% ≤ substrate protein remaining % ≤ 80%) | B (B is defined as substrate protein remaining % > 80%) | B (B is defined as substrate protein remaining % > 80%) |
| O=C1CCN(c2cc(CCl)c(F)cn2)C(=O)N1 [GT-07199, 1-(4-(chloromethyl)-5-fluoropyridin-2-yl)dihydropyrimidine-2,4(1H,3H)-dione] | B (B is defined as substrate protein remaining % > 80%) | A (A is defined as 0% ≤ substrate protein remaining % ≤ 80%) | A (A is defined as 0% ≤ substrate protein remaining % ≤ 80%) | A (A is defined as 0% ≤ substrate protein remaining % ≤ 80%) | A (A is defined as 0% ≤ substrate protein remaining % ≤ 80%) | B (B is defined as substrate protein remaining % > 80%) |
| O=C1CCC(Nc2cc(CO)ccn2)C(=O)N1 (stereo not drawn) [GT-07366, 3-((4-(hydroxymethyl)pyridin-2-yl)amino)piperidine-2,6-dione] | B (B is defined as substrate protein remaining % > 80%) | A (A is defined as 0% ≤ substrate protein remaining % ≤ 80%) | B (B is defined as substrate protein remaining % > 80%) | B (B is defined as substrate protein remaining % > 80%) | A (A is defined as 0% ≤ substrate protein remaining % ≤ 80%) | B (B is defined as substrate protein remaining % > 80%) |
